Experimental data: ChEMBL document CHEMBL1201862, “PubChem BioAssay data set” (2004)
Active and inactive are the calls of the source.

What was measured:
[1] = target: T1, Hexokinase HKDC1 (Homo sapiens, UniProt Q2TB90); test: inhibition of HKDC1 glucose phosphorylation – biochemical, W721R variant, dose response (AID 504729); format: functional
T1 sequence (Q2TB90 whole entry): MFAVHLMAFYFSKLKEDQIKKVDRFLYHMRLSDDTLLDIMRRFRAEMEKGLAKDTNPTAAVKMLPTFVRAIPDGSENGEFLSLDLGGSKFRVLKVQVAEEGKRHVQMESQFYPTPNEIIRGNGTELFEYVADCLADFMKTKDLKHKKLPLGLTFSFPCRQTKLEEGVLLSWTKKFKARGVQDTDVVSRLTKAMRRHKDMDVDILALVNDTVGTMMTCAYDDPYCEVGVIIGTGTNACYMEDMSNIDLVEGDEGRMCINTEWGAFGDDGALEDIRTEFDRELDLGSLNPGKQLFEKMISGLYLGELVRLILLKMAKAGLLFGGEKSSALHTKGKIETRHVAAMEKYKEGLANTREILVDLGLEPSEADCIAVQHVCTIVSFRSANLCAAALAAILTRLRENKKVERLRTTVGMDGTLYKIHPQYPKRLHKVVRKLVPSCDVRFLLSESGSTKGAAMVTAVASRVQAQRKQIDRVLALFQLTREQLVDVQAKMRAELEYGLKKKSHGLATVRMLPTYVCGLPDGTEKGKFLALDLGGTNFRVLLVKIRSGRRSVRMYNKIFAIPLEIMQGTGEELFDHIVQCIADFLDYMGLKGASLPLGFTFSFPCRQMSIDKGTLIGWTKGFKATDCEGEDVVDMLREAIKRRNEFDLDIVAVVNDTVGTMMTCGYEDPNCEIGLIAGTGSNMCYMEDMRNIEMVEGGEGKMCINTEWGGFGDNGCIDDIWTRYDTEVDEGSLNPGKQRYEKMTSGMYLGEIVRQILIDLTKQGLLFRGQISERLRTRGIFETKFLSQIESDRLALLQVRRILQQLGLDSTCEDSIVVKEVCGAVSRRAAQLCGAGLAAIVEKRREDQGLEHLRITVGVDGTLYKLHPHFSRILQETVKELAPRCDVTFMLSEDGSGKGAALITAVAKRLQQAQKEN

[2] = cells; format: functional
[3] = THP-1 cell cytotoxicity, dose response, cytotoxicity control for non-replicating M. tuberculosis project (AID 489025); format: functional
[4] = HepG2 cell cytotoxicity, dose response, cytotoxicity control for non-replicating M. tuberculosis project (AID 489018); format: functional; settings: Mycobacterium tuberculosis
[5] = Vero E6 cell cytotoxicity, dose response, cytotoxicity control for non-replicating M. tuberculosis project, secondary assay (AID 492998); format: functional, VeroE6; settings: Vero C1008
[6] = tested on: Vero; test: cells; format: functional; settings: Chlorocebus sabaeus
[7] = microbe, parasite or virus in culture; format: functional; settings: Mycobacterium tuberculosis
[8] = target: X-box-binding protein 1 (Homo sapiens, UniProt P17861); format: functional, Cricetulus griseus;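 further: confirmatory dose-response counter-screen serving a CHOP assay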
[9] = target: DNA damage-inducible transcript 3 protein (Mus musculus, UniProt P35639); format: functional, Cricetulus griseus
[10] = target: T2, Bcl-2-like protein 10 (Homo sapiens, UniProt Q9HD36); test: Bcl-B/TR3 peptide binding disruption – biochemical, fluorescence polarization, FITC-TR3 peptide, selectivity assay for Bfl-1 inhibitor project, primary screen (AID 748);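 further: fluorescence polarization from a fluorescein-labelled TR3 peptide binding purified Bcl-B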
T2 sequence (Q9HD36 whole entry): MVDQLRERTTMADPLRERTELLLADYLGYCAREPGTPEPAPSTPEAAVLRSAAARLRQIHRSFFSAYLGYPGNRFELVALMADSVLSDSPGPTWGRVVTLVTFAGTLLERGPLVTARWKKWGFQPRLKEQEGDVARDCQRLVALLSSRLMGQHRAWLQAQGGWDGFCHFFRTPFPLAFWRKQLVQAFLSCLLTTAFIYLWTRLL

[11] = cells; format: functional, cell-based
[12] = cells; format: functional, cell-based; remark: listed apart in the source
[13] = target: Induced myeloid leukemia cell differentiation protein Mcl-1 (Homo sapiens, UniProt Q07820); format: functional
Sequence of Induced myeloid leukemia cell differentiation protein Mcl-1 (Q07820 whole entry): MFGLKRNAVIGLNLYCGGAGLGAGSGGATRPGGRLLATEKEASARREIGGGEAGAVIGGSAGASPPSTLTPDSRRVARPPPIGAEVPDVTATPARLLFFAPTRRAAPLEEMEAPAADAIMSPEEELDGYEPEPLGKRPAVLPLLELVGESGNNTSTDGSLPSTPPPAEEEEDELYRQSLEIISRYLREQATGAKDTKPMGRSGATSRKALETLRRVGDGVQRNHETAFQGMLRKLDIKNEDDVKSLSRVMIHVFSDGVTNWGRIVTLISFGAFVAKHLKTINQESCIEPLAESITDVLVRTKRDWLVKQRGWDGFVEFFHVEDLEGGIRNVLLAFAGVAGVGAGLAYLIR

Sequence of X-box-binding protein 1 (P17861 whole entry): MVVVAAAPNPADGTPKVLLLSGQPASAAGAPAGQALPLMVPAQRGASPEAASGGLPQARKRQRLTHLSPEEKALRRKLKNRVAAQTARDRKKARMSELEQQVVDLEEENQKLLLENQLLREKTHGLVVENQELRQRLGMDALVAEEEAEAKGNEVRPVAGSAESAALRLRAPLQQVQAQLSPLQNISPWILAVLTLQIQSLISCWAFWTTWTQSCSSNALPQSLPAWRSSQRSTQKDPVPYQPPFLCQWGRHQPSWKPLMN
Sequence of DNA damage-inducible transcript 3 protein (P35639 whole entry): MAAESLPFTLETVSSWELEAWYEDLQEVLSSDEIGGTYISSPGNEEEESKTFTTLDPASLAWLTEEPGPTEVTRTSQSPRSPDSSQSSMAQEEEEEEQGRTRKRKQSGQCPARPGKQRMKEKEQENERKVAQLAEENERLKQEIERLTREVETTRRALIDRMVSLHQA

Question: Which IC50 [1] does the source give for Cc1cccc(N2C(=O)NC(=O)/C(=C\c3ccc4c(c3)CCCN4Cc3ccccc3)C2=O)c1 here?
Answer: 27.6 µM (inactive)

Question: Which results are given for O=C(c1ccc(Cl)cc1)N1N=C(c2ccccn2)CC1(O)C(F)(F)F (stereo not drawn)?
Answer: IC50 [2]: 3.69 µM (active); CC50 [3]: 11.6 µM (active); CC50 [4]: 15.2 µM (active); CC50 [5]: 13.3 µM (active); CC50 [6]: 20.4 µM (active); CC50 [7]: 32.6 µM (active)

Question: What does the source list for Clc1ccc(-c2csc(N/N=C/c3cccnc3)n2)c(Cl)c1?
Answer: Absolute IC50 (XBP1) [8]: 10 µM; Absolute IC50 (CHOP) [9]: 10 µM

Question: Which results are given for Cc1ccc(N=Nc2ccc(O)c(/C=N\NC(=O)c3ccc(N)cc3)c2)cc1C?
Answer: IC50 [10]: > 100 µM (inactive); EC50 [11]: > 350 µM (not active); EC50 [12]: > 350 µM (not active); IC50 [13]: 2.62 µM (active)
